Reference: US9957264B2 (Merck Sharp & Dohme Corp., priority 2013, dated 2018)

Key:
[1] = biological target: JAK2 (recombinant purified GST-tagged catalytic domain) (Homo sapiens (Human), UniProt O60674); assay: Jak Biochemical HTRF Assay (JAK2); details: [ATP] 8.5 μM
Experimental: (§1) Jak Biochemical HTRF Assay Protocol
The ability of compounds to inhibit the activity of JAK1, JAK2, JAK3, and Tyk2 was measured using a recombinant purified GST-tagged catalytic domain for each enzyme (Invitrogen JAK1 #M4290, JAK2 #M4290, JAK3 #M4290, Tyk2 #M4290) in an HTRF format biochemical assay. […] The basic assay protocol is as follows: First, 250 nL of diluted compounds in DMSO were dispensed into the wells of a dry 384-well Black plate (Greiner #781076) using a Labcyte Echo 555 acoustic dispenser. Subsequent reagent additions employed an Agilent Bravo. […] After equilibration, 2 μL of 10×ATP in 1× assay buffer was added to initiate the kinase reaction and the plates were shaken and then incubated at room temperature for 120 minutes. […] Plates were shaken and centrifuged and then incubated 60 minutes at room temperature and then read on a Perkin Elmer Envision (λex=337 nm, λem=665 and 615 nm, TRF delay time=20 μs). HTRF signal=10,000*665 nm reading/615 nm reading. After normalization to untreated controls, the percent inhibition of the HTRF signal at each compound concentration was calculated. The plot of percent inhibition versus the log of compound concentration was fit with a 4-parameter dose response equation to calculate IC50 values.
(§2) Final reaction conditions were:
Examples of the instant invention were evaluated in JAK1 and JAK2 in vitro binding assays as described above.

[2] = biological target: JAK1 (recombinant purified GST-tagged catalytic domain) (Homo sapiens (Human), UniProt P23458); assay: Jak Biochemical HTRF Assay (JAK1); details: [ATP] 31.8 μM
JAK1 (recombinant purified GST-tagged catalytic domain), sequence (P23458 875-1153): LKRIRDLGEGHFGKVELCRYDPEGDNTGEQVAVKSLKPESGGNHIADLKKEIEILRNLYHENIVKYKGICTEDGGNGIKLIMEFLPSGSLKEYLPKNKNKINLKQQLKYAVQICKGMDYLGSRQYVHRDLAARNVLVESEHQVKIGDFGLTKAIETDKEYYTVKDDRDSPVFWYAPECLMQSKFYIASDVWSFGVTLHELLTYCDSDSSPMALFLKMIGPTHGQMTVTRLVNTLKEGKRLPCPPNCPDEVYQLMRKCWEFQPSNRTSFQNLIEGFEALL
Experimental: as §1
The ability of compounds to inhibit the activity of JAK1, JAK2, JAK3, and Tyk2 was measured using a recombinant purified GST-tagged catalytic domain for each enzyme (Invitrogen JAK1 #M4290, JAK2 #M4290, JAK3 #M4290, Tyk2 #M4290) in an HTRF format biochemical assay. The reactions employed a common peptide substrate, LCB-[…]-NH2 (in-house). The basic assay protocol is as follows: First, 250 nL of diluted compounds in DMSO were dispensed into the wells of a dry 384-well Black plate (Greiner #781076) using a Labcyte Echo 555 acoustic dispenser. Subsequent reagent additions employed an Agilent Bravo. […] After equilibration, 2 μL of 10×ATP in 1× assay buffer was added to initiate the kinase reaction and the plates were shaken and then incubated at room temperature for 120 minutes. At the end of the incubation, 20 μL of 2× stop buffer (streptavidin-Dylight 650 (Thermo #84547B/100 mL), Eu-tagged pY20 antibody (Perkin Elmer #AD0067), EDTA, HEPES, and Triton) was added to quench the reaction. Plates were shaken and centrifuged and then incubated 60 minutes at room temperature and then read on a Perkin Elmer Envision (λex=337 nm, λem=665 and 615 nm, TRF delay time=20 μs). HTRF signal=10,000*665 nm reading/615 nm reading. After normalization to untreated controls, the percent inhibition of the HTRF signal at each compound concentration was calculated. The plot of percent inhibition versus the log of compound concentration was fit with a 4-parameter dose response equation to calculate IC50 values.
as §2
Examples of the instant invention were evaluated in JAK1 and JAK2 in vitro binding assays as described above. The following table tabulates the JAK1 IC50 values and JAK2 IC50 values disclosed for the instant invention.

JAK2 (recombinant purified GST-tagged catalytic domain), sequence (O60674 849-1124): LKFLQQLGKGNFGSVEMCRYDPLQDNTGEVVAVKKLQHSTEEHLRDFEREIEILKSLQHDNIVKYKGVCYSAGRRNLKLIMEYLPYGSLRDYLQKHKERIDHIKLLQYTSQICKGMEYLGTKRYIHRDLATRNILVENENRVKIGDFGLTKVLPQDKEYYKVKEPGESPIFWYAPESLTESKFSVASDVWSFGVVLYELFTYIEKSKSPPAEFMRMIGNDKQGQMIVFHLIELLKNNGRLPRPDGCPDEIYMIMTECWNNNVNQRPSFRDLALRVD

Row | Compound | IC50 [1] | IC50 [2]
1 | COC(=O)[C@@H]1CC[C@@](CC#N)(n2nc(Nc3ccc(S(C)(=O)=O)cc3)c3c(=O)[nH]ccc32)CO1 (racemic) [Example 5-32, (2S,5S and 2R,5R)-methyl 5-(cyanomethyl)-5-(3-((4-(methylsulfonyl)phenyl)amino)-4-oxo-4,5-dihydro-1H-pyrazolo[4,3-c]pyridin-1-yl)tetrahydro-2H-pyran-2-carboxylate] | 0.87 nM | 0.13 nM
2 | CC(C)(C)OC(=O)[C@@H]1CC[C@](CC#N)(n2nc(Nc3ccc(S(C)(=O)=O)cc3)c3c(=O)[nH]ccc32)CO1 (racemic) [Example 5-35, (2R,5S and 2S,5R)-tert-butyl 5-(cyanomethyl)-5-(3-((4-(methylsulfonyl)phenyl)amino)-4-oxo-4,5-dihydro-1H-pyrazolo [4,3-c]pyridin-1-yl) tetrahydro-2H-pyran-2-carboxylate] | 29.3 nM | 3.43 nM
3 | CC(C)(C)OC(=O)[C@@H]1CC[C@@](CC#N)(n2nc(Nc3ccc(S(C)(=O)=O)cc3)c3c(=O)[nH]ccc32)CO1 (racemic) [Example 5-36, (2S,5S and 2R,5R)-tert-butyl 5-(cyanomethyl)-5-(3-((4-(methylsulfonyl)phenyl)amino)-4-oxo-4,5-dihydro-1H-pyrazolo[4,3-c]pyridin-1-yl)tetrahydro-2H-pyran-2-carboxylate] | 0.34 nM | 0.09 nM
4 | C[C@@H]1CCCC1OC(=O)N1CCC(CC#N)(n2nc(Nc3ccc(S(=O)(=O)N(C)C)cc3)c3c(=O)[nH]ccc32)CC1 (mixture of isomers) [Example 11-2, (trans racemic)-2-methylcyclopentyl 4-(cyanomethyl)-4-(3-((4-(N,N-dimethylsulfamoyl)phenyl)amino)-4-oxo-4,5-dihydro-1H-pyrazolo[4,3-c]pyridin-1-yl)piperidine-1-carboxylate] | 1.69 nM | 0.38 nM
5 | CC(C)(C)OC(=O)N1CCC(CC#N)(n2nc(Nc3ccc([C@H](O)C(F)(F)F)cc3)c3c(=O)[nH]ccc32)CC1 (single isomer, unassigned) [Example 5-2, tert-butyl 4-(cyanomethyl)-4-[4-oxo-3-({4-[(1S or 1R)-2,2,2-trifluoro-1-hydroxyethyl]phenyl}amino)-4,5-dihydro-1H-pyrazolo[4,3-c]pyridin-1-yl]piperidine-1-carboxylate] | 0.44 nM | 0.21 nM
6 | CC(C)(C)OC(=O)N1CCC(CC#N)(n2nc(Nc3ccc([C@@H](O)C(F)(F)F)cc3)c3c(=O)[nH]ccc32)CC1 (single isomer, unassigned) [Example 5-3, tert-butyl 4-(cyanomethyl)-4-[4-oxo-3-({4-[(1R or 1S)-2,2,2-trifluoro-1-hydroxyethyl]phenyl}amino)-4,5-dihydro-1H-pyrazolo[4,3-c]pyridin-1-yl]piperidine-1-carboxylate] | 1.11 nM | 0.43 nM
7 | CC(C)(C)OC(=O)N1CC[C@](CC#N)(n2nc(Nc3ccc(S(C)(=O)=O)cc3)c3c(=O)[nH]ccc32)[C@@H](F)C1 (single isomer, unassigned) [Example 5-14, tert-butyl (3S,4R or 3R,4S)-4-(cyanomethyl)-3-fluoro-4-(3-{[4-(methylsulfonyl)phenyl]amino}-4-oxo-4,5-dihydro-1H-pyrazolo[4,3-c]pyridin-1-yl)piperidine-1-carboxylate] | 17.7 nM | 1.07 nM
8 | CC(C)(C)OC(=O)N1CC[C@@](CC#N)(n2nc(Nc3ccc(S(C)(=O)=O)cc3)c3c(=O)[nH]ccc32)[C@H](F)C1 (single isomer, unassigned) [Example 5-15, tert-butyl (3R,4S or 3S,4R)-4-(cyanomethyl)-3-fluoro-4-(3-{[4-(methylsulfonyl)phenyl]amino}-4-oxo-4,5-dihydro-1H-pyrazolo[4,3-c]pyridin-1-yl)piperidine-1-carboxylate] | 3.45 nM | 0.27 nM
9 | CC(C)(C)OC(=O)N1CC[C@](CC#N)(n2nc(Nc3ccc([C@H](O)C(F)(F)F)cc3)c3c(=O)[nH]ccc32)[C@H](F)C1 (single isomer, unassigned) [Example 5-20, tert-butyl (3R,4R)-4-(cyanomethyl)-3-fluoro-4-[4-oxo-3-({4-[(1S or 1R)-2,2,2-trifluoro-1-hydroxyethyl]phenyl}amino)-4,5-dihydro-1H-pyrazolo [4,3-c]pyridin-1-yl] piperidine-1-carboxylate] | 0.12 nM | 0.15 nM
10 | CC(C)(C)OC(=O)N1CC[C@](CC#N)(n2nc(Nc3ccc([C@@H](O)C(F)(F)F)cc3)c3c(=O)[nH]ccc32)[C@H](F)C1 (single isomer, unassigned) [Example 5-21, tert-butyl (3R,4R)-4-(cyanomethyl)-3-fluoro-4-[4-oxo-3-({4-[(1R or 1S)-2,2,2-trifluoro-1-hydroxyethyl]phenyl}amino)-4,5-dihydro-1H-pyrazolo[4,3-c]pyridin-1-yl]piperidine-1-carboxylate] | 0.14 nM | 0.15 nM
11 | COC(=O)[C@@H]1CC[C@@](CC#N)(n2nc(Nc3ccc(S(C)(=O)=O)cc3)c3c(=O)[nH]ccc32)CO1 (single isomer, unassigned) [Example 5-33, (2S,5S or 2R,5R)-methyl 5-(cyanomethyl)-5-(3-((4-(methylsulfonyl)phenyl)amino)-4-oxo-4,5-dihydro-1H-pyrazolo[4,3-c]pyridin-1-yl)tetrahydro-2H-pyran-2-carboxylate] | 0.23 nM | 0.03 nM
12 | CS(=O)(=O)c1ccc(Nc2nn(C3(CC#N)CCN(c4ccc(I)cn4)CC3)c3cc[nH]c(=O)c23)cc1 [Example 15-7, 2-(1-(5-iodopyridin-2-yl)-4-(3-((4-(methylsulfonyl)phenyl)amino)-4-oxo-4,5-dihydro-1H-pyrazolo[4,3-c]pyridin-1-yl)piperidin-4-yl)acetonitrile] | – | 0.17 nM
13 | CN(C)S(=O)(=O)c1ccc(Nc2nn([C@]3(CC#N)CC[C@@H](N4CC(F)C4)CC3)c3cc[nH]c(=O)c23)cc1 [Example 18-29, Trans 4-((1-(1-(cyanomethyl)-4-(3-fluoroazetidin-1-yl)cyclohexyl)-4-oxo-4,5-dihydro-1H-pyrazolo[4,3-c]pyridin-3-yl)amino)-N,N-dimethylbenzenesulfonamide] | – | 0.1 nM
14 | CN(C)S(=O)(=O)c1ccc(Nc2nn([C@]3(CC#N)CC[C@H](N4CC(F)C4)CC3)c3cc[nH]c(=O)c23)cc1 [Example 18-30, Cis 4-((1-(1-(cyanomethyl)-4-(3-fluoroazetidin-1-yl)cyclohexyl)-4-oxo-4,5-dihydro-1H-pyrazolo[4,3-c]pyridin-3-yl)amino)-N,N-dimethylbenzenesulfonamide] | – | 2.62 nM
15 | Cc1cc(Nc2nn([C@]3(CC#N)CC[C@@H](C(=O)OC(C)(C)C)OC3)c3cc[nH]c(=O)c23)ccc1C(=O)N1CCSCC1 [Example 20-6, (2S,5S)-tert-butyl 5-(cyanomethyl)-5-(3-((3-methyl-4-(thiomorpholine-4-carbonyl)phenyl)amino)-4-oxo-4,5-dihydro-1H-pyrazolo[4,3-c]pyridin-1-yl)tetrahydro-2H-pyran-2-carboxylate] | – | 0.13 nM
16 | CC(C)(C)OC(=O)[C@@H]1CC[C@@](CC#N)(n2nc(Nc3ccc4c(c3)NC(=O)C4(C)C)c3c(=O)[nH]ccc32)CO1 [Example 21-3, (2S,5S)-tert-butyl 5-(cyanomethyl)-5-(3-((3,3-dimethyl-2-oxoindolin-6-yl)amino)-4-oxo-4,5-dihydro-1H-pyrazolo[4,3-c]pyridin-1-yl)tetrahydro-2H-pyran-2-carboxylate] | – | 0.07 nM
